Experimental findings from patent publication US20230278997A1, “BICYCLO[1.1.1]PENTANE COMPOUNDS FOR THE TREATMENT AND PROPHYLAXIS OF HEPATITIS B VIRUS INFECTION” (Hoffmann-La Roche Inc., priority 2020, published 2023) are described below.

Read-outs that look alike come from different tables or passages of the source.

Series [1] relates to primary human hepatocyte (PHH). Briefly: Cytotoxicity in PHH natural infection assay (Cell Counting Kit-8). Conditions: therapeutic index; CC50 by CCK8 in PHH over HBsAg IC50. In kind it is cell-based. The procedure:
Detailed procedures regarding primary human hepatocyte (PHH) HBV natural infection assay are described as below. One tube of frozen PHH (10 million cells) was thawed in 37° C. water bath and then transferred to 20 mL of PHH thawing medium (Sigma, InVitroGRO HT Medium, Cat. 503319) with gently mixing. The cells were then centrifuged at […] for 5 min, the supernatant was discarded and the tube was refilled with 25 mL of PHH plating medium (Sigma, InVitroGRO CP Medium, Cat. 503317). The tube was shaken very gently to re-suspend all cells, and then 50 μl of cells were transferred to each well of a 384-well collagen I coated plate with appropriate liquid handling equipment, e.g. Integra VIAFLO384 or Agilent Bravo. The cells were then cultured for 24 hours in a cell incubator. For HBV infection, after PHH attachment on the culture plate, the plating medium was removed and replenished with PHH culture medium containing HBV virus. The PHH culture medium was prepared with Dulbecco's Modified Eagle Medium (DMEM)/F12 (1:1 in volume ratio) containing 10% fetal bovine serum (Gibco, Cat.10099141), 5 ng/mL human epidermal growth factor (Gibco, Cat.PHG031 IL), 20 ng/mL dexamethasone (Sigma, Cat.D4902-100 mg), 250 ng/mL human recombinant insulin (Gibco, Cat.41400045) and 100 U/mL penicillin. HBV virus at 200 genome equivalent (GE) per cell with 4% PEG8000 (Sigma, Cat.P1458) containing culture medium were added to the PHH culture medium for infection. The cells were then cultured for 24 hours in cell incubator. Then the cell culture supernatant was removed. The HBV-infected PHH were cultured with sandwich culture method with PHH culture medium containing 1% DMSO and 0.25 mg/mL matrix gel for 72 hours. The supernatant was then refreshed with PHH culture medium containing different concentrations of testing compounds for two times with 72-hour interval. At the end of treatment, the supernatant was collected for viral markers measurements, including HBsAg, HBeAg, HBV DNA and cytotoxicity. HBsAg and HBeAg were detected using alphalisa method using their specific antibodies. For HBV DNA detection, HBV DNA Quantitative Fluorescence Diagnostic Kit (Sansure Biotech Inc.) was used following the manufacture's protocol. Cytotoxicity was determined using Cell Counting Kit-8 (CCK8, Dojindo Molecular Technologies, Inc.).
A general note: Tetrazolium dyes change colour on reduction, which living cells bring about.

The next series deals with HBsAg. Nature of the series: microbe, parasite or virus in culture. It counts as cell-based, HBV. Conditions: Hepatitis B virus, read-out: HBsAg IC50.
The nature of series [2]: Human microsome stability assay. In kind it is in vitro ADME. Conditions: 1 μM compound, 0.5 mg/mL microsomal protein, 37° C.; detection limit 6.15 mL/min/kg. The procedure:
Human Microsome Stability Assay The human microsomal stability assay is used for early assessment of metabolic stability of a test compound in human liver microsomes. Human liver microsomes (Cat. […] The reactions were initiated by adding NADPH regenerating system. […] Following precipitation and centrifugation, the amount of compound remaining in the samples were determined by LC-MS/MS. Controls of no NADPH regenerating system at zero and 30 minutes were also prepared and analyzed.

The subject of the next series is HBeAg. Nature of the series: microbe, parasite or virus in culture. In kind it is cell-based, HBV. Conditions: Hepatitis B virus, read-out: HBeAg IC50.
Series [3] in a line: Single dose pharmacokinetics (PK) study in male C57BL/6 mouse. It counts as in vivo. Conditions: for clearance / half-life / Vd / AUC(0-t): male; for clearance / half-life / Vd: C57BL/6, plasma; for clearance / half-life / Vd / F: mouse; for Vd: read-out: VSS; for AUC(0-t): C57BL/6, mouse plasma; for F: dose normalized AUC0-last. The protocol:
Single Dose Pharmacokinetics (PK) Study in Male C57BL/6 Mouse Pharmacokinetic properties of selected compounds were assessed by single dose PK studies in Male C57BL/6 mouse (vendor: Beijing Vital River Laboratory Animal Technology Co., Ltd). Briefly, two groups of animals were administered a single dose of respective compound intravenously (IV, bolus) at 1 mg/kg or orally (PO, by gavage) at 10 mg/kg or 30 mg/kg. […] After centrifugation, the resulting plasma was transferred to clean tubes for bioanalysis with LC/MS/MS. The pharmacokinetic parameters were calculated using non-compartmental analysis. The volume of distribution (Vss), half-life (T1/2) and clearance (CL) were obtained based on the plasma concentration-time curve after IV dose. The peak concentration (Cmax) was recorded directly from experimental observations after PO dose. The area under the plasma concentration-time curve (AUC0-last and AUC0-24 h) was calculated using the linear trapezoidal rule up to the last detectable concentration. The bioavailability (F) was calculated based on the dose normalized AUC0-last after IV and PO dose. The Vss of a drug represents the degree to which a drug is distributed in body tissue rather than the plasma. Vss is directly proportional with the amount of drug distributed into tissue. A higher Vss indicates a greater amount of tissue distribution.

Test in series [4]: as above
Conditions: IV dose 0.4 mg/kg. It counts as in vivo.

Where [5] appears, read: IV bolus 1 mg/kg, read-out: IV AUC0-24h.
[6] abbreviates: PO 30 mg/kg single dose, read-out: PO AUC0-24h.
Where [7] appears, read: PO 10 mg/kg single dose, read-out: PO AUC0-24h.

One may read the IC50 as the concentration needed to halve the response being measured. In general, clearance refers to a measure of how efficiently the substance is removed, as volume per time. Read a low clearance as inefficient removal. Broadly, the half-life is the time needed for the level to fall by half in the phase considered. Lower therefore signals fast loss. In the case of `CS(=O)(=O)C1(c2nsc(C(=O)NC34CC(c5cnn(-c6ccc(Cl)cc6)n5)(C3)C4)n2)CC1` [Example 60, N-[3-[2-(4-chlorophenyl)triazol-4-yl]-1-bicyclo[1.1.1]pentanyl]-3-(1-methylsulfonylcyclopropyl)-1,2,4-thiadiazole-5-carboxamide], in series [1], the “TI (CC50/IC50 HBsAg)” value is recorded as 261.76. For the same molecule, the IC50 with HBsAg was determined as 0.017 µM. The “Clearance of human microsome” value in series [2] is at most 6.15 mL/min/kg. In the series with HBeAg, the 50% inhibitory concentration (IC50) is 0.017 µM. Besides, in series [3] (IV bolus 1 mg/kg), the clearance is 0.1 mL/min/kg, the half-life was 62.4 h and the Vd turned out to be 0.55 L/kg. The AUC(0-t) in series [3] (setting [5]) is 38.1 µg·h/mL. Moreover, in series [3] (setting [6]), the AUC(0-t) was determined as 154 µg·h/mL. The molecule further returned a F in series [3] (PO 30 mg/kg vs IV) of 14%.
As to `CS(=O)(=O)C1(c2nsc(C(=O)NC34CC(c5nc(-c6ccc(Cl)cc6)no5)(C3)C4)n2)CC1` [Example 34, N-[3-[3-(4-chlorophenyl)-1,2,4-oxadiazol-5-yl]-1-bicyclo[1.1.1]pentanyl]-3-(1-methylsulfonylcyclopropyl)-1,2,4-thiadiazole-5-carboxamide], the “TI (CC50/IC50 HBsAg)” value in series [1] is reported as 181.50. Further, the AUC(0-t) worked out at 24.2 µg·h/mL in series [4] (C57BL/6, mouse plasma, AUC value is dose-normalized, read-out: IV AUC0-24h) and 270 µg·h/mL in series [3] (setting [6]). In series [4] (C57BL/6, plasma, mouse), this molecule came in with a clearance of 0.03 mL/min/kg. In addition, the half-life in series [4] (C57BL/6, plasma, mouse) was over 40 h. Moreover, in series [4] (C57BL/6, plasma, mouse, read-out: VSS), the Vd was 0.93 L/kg. For the same molecule, the half-inhibitory concentration (IC50) in the series on HBsAg and in the series with HBeAg was 0.02 µM in each case. In addition, the “Clearance of human microsome” value in series [2] is recorded as at most 6.15 mL/min/kg. In addition, the F in series [3] (PO 30 mg/kg vs IV) is reported as 39%.
Consider `CS(=O)(=O)C1(c2ccc(C(=O)NC34CC(c5cnn(-c6ccc(Cl)cc6)n5)(C3)C4)o2)CC1` [Example 30, N-[3-[2-(4-chlorophenyl)triazol-4-yl]-1-bicyclo[1.1.1]pentanyl]-5-(1-methylsulfonylcyclopropyl)furan-2-carboxamide], for which the “TI (CC50/IC50 HBsAg)” value in series [1] was 148.67. The IC50 in the series with HBsAg is 0.06 µM. Besides, the “Clearance of human microsome” value in series [2] is given as at most 6.15 mL/min/kg. Moreover, the IC50 with HBeAg amounted to 0.04 µM. Further, in series [3] (IV bolus 1 mg/kg), the clearance was 0.19 mL/min/kg, the half-life was 48.4 h and the Vd came to 0.74 L/kg. Moreover, in series [3] (setting [5]), the AUC(0-t) is 27 µg·h/mL. The AUC(0-t) in series [3] (setting [6]) turned out to be 370 µg·h/mL. The molecule further yielded a F in series [3] (PO 30 mg/kg vs IV) of 46%.
With `CS(=O)(=O)C1(c2ccc(C(=O)NC34CC(c5nc(-c6ccc(Cl)cc6)no5)(C3)C4)o2)CC1` [Example 32, N-[3-[3-(4-chlorophenyl)-1,2,4-oxadiazol-5-yl]-1-bicyclo[1.1.1]pentanyl]-5-(1-methylsulfonylcyclopropyl)furan-2-carboxamide], the “TI (CC50/IC50 HBsAg)” value in series [1] worked out at 112.00. Besides, the IC50 in the series with HBsAg amounted to 0.04 µM. The “Clearance of human microsome” value in series [2] was at most 6.15 mL/min/kg. For the same molecule, the IC50 in the series with HBeAg turned out to be 0.04 µM. Further, in series [3] (IV bolus 1 mg/kg), the clearance stood at 0.43 mL/min/kg, the half-life was 17.8 h and the Vd worked out at 0.64 L/kg. The AUC(0-t) in series [3] (setting [5]) was found to be 24.1 µg·h/mL. In addition, the AUC(0-t) in series [3] (setting [6]) was found to be 249 µg·h/mL. In series [3] (PO 30 mg/kg vs IV), the F worked out at 35%.
With `CS(=O)(=O)C1(c2nsc(C(=O)NC34CC(c5ccnc(-c6ccc(Cl)cc6)n5)(C3)C4)n2)CC1` [Example 48, N-[3-[2-(4-chlorophenyl)pyrimidin-4-yl]-1-bicyclo[1.1.1]pentanyl]-3-(1-methylsulfonylcyclopropyl)-1,2,4-thiadiazole-5-carboxamide], the “TI (CC50/IC50 HBsAg)” value in series [1] was determined as 127.43. In the series on HBsAg, the IC50 amounted to 0.07 µM. For the same molecule, the “Clearance of human microsome” value in series [2] is given as 10.71 mL/min/kg. The IC50 in the series with HBeAg was 0.07 µM. In addition, in series [3] (IV bolus 1 mg/kg), the clearance was found to be 0.07 mL/min/kg, the half-life was 53.7 h and the Vd came out at 0.29 L/kg. The AUC(0-t) in series [3] (setting [5]) is 70.2 µg·h/mL. In addition, the AUC(0-t) in series [3] (setting [7]) was 629 µg·h/mL. The same molecule showed a F in series [3] (PO 10 mg/kg vs IV 1 mg/kg) of 92%.
As to `CS(=O)(=O)C1(c2ccc(C(=O)NC34CC(c5nc(-c6ccc(Cl)cc6)cs5)(C3)C4)o2)CC1` [Example 1, N-[3-[4-(4-chlorophenyl)thiazol-2-yl]-1-bicyclo[1.1.1]pentanyl]-5-(1-methylsulfonylcyclopropyl)furan-2-carboxamide], the “TI (CC50/IC50 HBsAg)” value in series [1] came to 27.88. Also, the half-maximal inhibitory concentration (IC50) in the series on HBsAg was determined as 0.16 µM. Further, in series [2], the “Clearance of human microsome” value is given as at most 6.15 mL/min/kg. Besides, in the series with HBeAg, the IC50 worked out at 0.12 µM. Further, in series [3] (IV bolus 1 mg/kg), the clearance stood at 0.2 mL/min/kg, the half-life is 23.6 h and the Vd was found to be 0.4 L/kg. The AUC(0-t) in series [3] (setting [5]) amounted to 42.7 µg·h/mL. The AUC(0-t) in series [3] (setting [6]) amounted to 1310 µg·h/mL. Also, in series [3] (PO 30 mg/kg vs IV), the F came to 102%.
On to `CS(=O)(=O)C1(c2ccc(C(=O)NC34CC(c5noc(-c6ccc(Cl)cc6)n5)(C3)C4)o2)CC1` [Example 40, N-[3-[5-(4-chlorophenyl)-1,2,4-oxadiazol-3-yl]-1-bicyclo[1.1.1]pentanyl]-5-(1-methylsulfonylcyclopropyl)furan-2-carboxamide], for which the “TI (CC50/IC50 HBsAg)” value in series [1] came to 46.00. Also, the IC50 in the series with HBsAg amounted to 0.14 µM. In series [2], the “Clearance of human microsome” value is given as at most 6.15 mL/min/kg. Further, the IC50 with HBeAg was 0.1 µM. Further, in series [3] (IV bolus 1 mg/kg), the clearance amounted to 0.85 mL/min/kg, the half-life is 12 h and the Vd came to 0.83 L/kg. In series [3] (setting [5]), the AUC(0-t) is 14.9 µg·h/mL. Further, the AUC(0-t) in series [3] (setting [6]) turned out to be 80.8 µg·h/mL. The molecule further returned a F in series [3] (PO 30 mg/kg vs IV) of 18%.
Regarding `CS(=O)(=O)C1(c2nsc(C(=O)NC34CC(c5noc(-c6ccc(Cl)cc6)n5)(C3)C4)n2)CC1` [Example 41, N-[3-[5-(4-chlorophenyl)-1,2,4-oxadiazol-3-yl]-1-bicyclo[1.1.1]pentanyl]-3-(1-methylsulfonylcyclopropyl)-1,2,4-thiadiazole-5-carboxamide], the “TI (CC50/IC50 HBsAg)” value in series [1] is reported as 65.54. The half-maximal inhibitory concentration (IC50) in the series on HBsAg worked out at 0.13 µM. The “Clearance of human microsome” value in series [2] is 14.14 mL/min/kg. Further, the IC50 in the series on HBeAg was 0.08 µM. In series [3] (IV bolus 1 mg/kg), the clearance was found to be 0.11 mL/min/kg, the half-life was 67.3 h and the Vd was 0.62 L/kg. The AUC(0-t) in series [3] (setting [5]) came to 34 µg·h/mL. For the same molecule, the AUC(0-t) in series [3] (setting [7]) came out at 59.7 µg·h/mL. In addition, the F in series [3] (PO 10 mg/kg vs IV 1 mg/kg) was 18%.
